# Laboratory results: patent publication US7250389B1, “Antifungal compound and process for producing the same” (Meiji Seika Kaisha, Ltd., priority 1998, dated 2007)
# Read-outs that look alike come from different tables or passages of the source.
# How the values were obtained:
# [1] = Photostability test (percentage residue as determined by HPLC); assay type: physicochemical; conditions: thin film
# Experimental: In consideration of use in agricultural chemicals, the following test was carried out to obtain data on photostability against exposure to sunlight. Date and Time of Test: First: 5 hr from 12:00 to 17:00 on May 26, 1997 Second: 6 hr from 10:00 to 16:00 on May 28, 1997 Place: For both tests, Odawara-shi, Kanagawa Weather: For both tests, fine […] Acetone was shortly evaporated. As a result, each sample was brought into a white thin film. The films thus obtained were exposed to sunlight. After the completion of exposure to sunlight, the residual amount of UK-2A and the residual amount of the compound of Example 18 were quantitatively determined by HPLC (column: YMC-PACKODS-AS-56.0×150 mm (A-312)), mobile phase: acetonitrile-water=70 : 30 (v/v), detection wavelength: 254 nm).
# blast (rice seedlings) = experiment: Photostability test (effect of protecting rice seedlings against blast, outdoors); assay type: in vivo; conditions: 200 ppm, 100 mL per m^2; outdoor rice seedlings; lesion area 19 days after application
# Excerpt: Rice seedlings of three-leaf stage (variety: Koshihikari) raised outdoors in an upland field bed (1 m×1 m) for rice seedlings were covered with a vinyl tunnel, only at night, with ears of rice suffering from blast being suspended (height 40 cm) to infect rice seedlings with blast. After the incipient infection was confirmed, agent solutions having an agent concentration of 200 ppm prepared by varying the agent concentration by the method as described in Test Example 2 each were applied in an amount of 100 mL per m^2 by means of a sprayer. For one week after the application of the agent, the rice seedlings were covered with the vinyl tunnel at night to promote the infection. 19 days after the application of the agent, the lesion area of the leaf was measured, and the protective value was calculated by the following equation.
# Protective value=(1−average lesion area of treated plot)/lesion area of untreated plot)×100
# [2] = tested on: cucumber anthracnose fungi (Colletotricum lagenarium); experiment: Confirmation test on persistence of the effect of protecting cucumber against anthracnose; assay type: in vivo; conditions: for Protective value, Plot 2: inoculation on the day subsequent to holding under fluorescent lamp; for Protective value, Plot 3: inoculation on the day subsequent to holding under sunlight; for Protective value, Plot 1: inoculation on the same day as application
# Excerpt: Cucumber seedlings (variety: Suyo) of first leaf development stage raised in each of plastic pots containing compost were provided. […] The agent was air dried. On the same day or 24 hr after the air drying, a conidial suspension of cucumber anthracnose fungi (Colletotricum lagenarium), which had been previously cultured in a potato soup agar medium, was evenly inoculated by spraying. […] Experimental Plots: Plot 1: Plot subjected to inoculation on the same day as application: Inoculation was carried out on the same day as the air drying, and the pots were allowed to stand under moist chamber conditions at 26° C. for 24 hr and then allowed to stand for 7 days in an environment control room kept at 18° C. at night and at 25° C. in the daytime. Plot 2: Plot subjected to inoculation on the day subsequent to holding under fluorescent lamp: After the air drying, the pots were placed in an environment control room under an indoor fluorescent lamp (the control room being kept at 18° C. at night and at 25° C. in the daytime with the fluorescent lamp being turned on for 8 hr in the daytime). 24 hr after the application of the agent, inoculation was carried out. Thereafter, the pots were allowed to stand under moist chamber conditions at 26° C. for 24 hr and then allowed to stand for 7 days in an environment control room kept at 18° C. at night and at 25° C. in the daytime. Plot 3: Plot subjected to inoculation on the day subsequent to holding under sunlight: After the air drying, the pots were placed outdoors under sunlight in the daytime (8 hr) and then allowed to stand in an environment control room kept at 18° C. 24 hr after the application of the agent, inoculation was carried out. Thereafter, the pots were allowed to stand under moist chamber conditions at 26° C. for 24 hr and then allowed to stand for 7 days in an environment control room kept at […] at night and at 25° C. in the daytime.
# [3] = tested on: cucumber anthracnose fungi (Colletotricum lagenarium); assay type: in vivo; conditions: 200 ppm spray; cucumber seedlings; seven days after inoculation
# [4] = tested on: cucumber downy mildew (pathogenic fungi: Peseudoperonocpora cubensis); experiment: Test on effect of protecting cucumber against downy mildew; assay type: in vivo; conditions: 200 ppm spray; cucumber seedlings; seven days after inoculation
# Experimental: Cucumber seedlings (variety: Suyo) of first leaf development stage raised in each of plastic pots containing compost were provided. […] The agent was air dried. Thereafter, a conidial suspension, which had been previously prepared by scraping lesion portions on the undersurface of cucumber suffering from cucumber downy mildew (pathogenic fungi: […] cubensis), was evenly inoculated by spraying. The pots were then kept under moist chamber conditions at 20° C. for 24 hr to perform infection. Thereafter, they were transferred to an environment control room kept at 18° C. at night and at 22° C. in the daytime to induce the disease.
# [5] = tested on: rice blast fungi (Pyricularia oryzae); assay type: in vivo
compound,measurement,setting,value
"COc1ccnc(C(=O)N[C@H]2COC(=O)[C@H](Cc3ccccc3)[C@@H](OC(=O)C(C)C)[C@H](C)OC2=O)c1OC(C)=O [Ex. 18, (2R,3R,4S,7S)-7-(3-Acetoxy-4-methoxypicolinylamino)-2-benzyl-5,9-dioxa-3-isobutyryloxy-4-methyl-1,6-cyclo-nonanedione]",Residual amount after exposure to sunlight,[1]; First test: 5 hr sunlight,98%
same,Residual amount after exposure to sunlight,[1]; Second test: 6 hr sunlight,93%
same,Protective value,blast (rice seedlings),95
same,"Protective value, Plot 2",[2]; 10 ppm,93
same,"Protective value, Plot 3",[2]; 10 ppm,60
same,"Protective value, Plot 1",[2]; 10 ppm,67
same,"Protective value, Plot 2",[2]; 30 ppm,93
same,"Protective value, Plot 3",[2]; 30 ppm,80
same,"Protective value, Plot 1",[2]; 30 ppm,67
same,"Protective value, Plot 2",[2]; 100 ppm,93
same,"Protective value, Plot 3",[2]; 100 ppm,93
same,"Protective value, Plot 1",[2]; 100 ppm,87
same,residual effect under sunlight compared with UK-2A,[2]; plot 3,much superior to UK-2A
same,difference in protective value between UK-2A and the compound of Example 18,[2]; plots 1 and 2,no significant difference
"CC(C)C(=O)O[C@H]1[C@H](C)OC(=O)[C@@H](NC(=O)c2cc(Cl)ccc2O)COC(=O)[C@@H]1Cc1ccccc1 [Ex. 46, (2R,3R,4S,7S)-7-(5-Chlorosalicyl)amino-2-benzyl-5,9-dioxa-3-isobutyryloxy-4-methyl-1,6-cyclononanedione]",Protective value,[3],100
"CC(C)C(=O)O[C@H]1[C@H](C)OC(=O)[C@@H](NC(=O)c2cc(NC=O)ccc2O)COC(=O)[C@@H]1Cc1ccccc1 [Ex. 52, (2R,3R,4S,7S)-7-(5-Formylaminosalicyl)amino-2-benzyl-5,9-dioxa-3-isobutyryloxy-4-methyl-1,6-cyclononanedione]",Protective value,[4],100
"CC(C)C(=O)O[C@H]1[C@H](C)OC(=O)[C@@H](NC(=O)c2cccc(N)c2O)COC(=O)[C@@H]1Cc1ccccc1 [Ex. 41, (2R,3R,4S,7S)-7-(3-Aminosalicyl)amino-2-benzyl-5,9-dioxa-3-isobutyryloxy-4-methyl-1,6-cyclononanedione]",Protective value,[3],100
same,Protective value,[4],88
same,Protective value,[5]; in vivo,86
"CCCCCCC1C(=O)OC(C)C(NC(=O)c2cccc(NC=O)c2O)C(=O)OC(C)C1OC(=O)CC(C)C (stereo not drawn) [Antimycin A, reference compound]",Protective value,[3],17
same,Protective value,"[5]; 100 ppm spray, rice seedlings, lesions counted seven days after inoculation",83
"COc1ccnc(C(=O)N[C@H]2COC(=O)[C@H](Cc3ccccc3)[C@@H](OC(=O)C(C)C)[C@H](C)OC2=O)c1O [UK-2A, reference compound]",Residual amount after exposure to sunlight,[1]; First test: 5 hr sunlight,33%
same,Residual amount after exposure to sunlight,[1]; Second test: 6 hr sunlight,64%
same,Protective value,blast (rice seedlings),63
same,"Protective value, Plot 2",[2]; 10 ppm,93
same,"Protective value, Plot 3",[2]; 10 ppm,27
same,"Protective value, Plot 1",[2]; 10 ppm,80
same,"Protective value, Plot 2",[2]; 30 ppm,100
same,"Protective value, Plot 3",[2]; 30 ppm,60
same,"Protective value, Plot 1",[2]; 30 ppm,100
"CC(C)C(=O)O[C@H]1[C@H](C)OC(=O)[C@@H](NC(=O)c2cccnc2O)COC(=O)[C@@H]1Cc1ccccc1 [Ex. 4, (2R,3R,4S,7S)-7-(2-Hydroxynicotinylamino)-2-benzyl-5,9-dioxa-3-isobutyryloxy-4-methyl-1,6-cyclononanedione]",Protective value,[4],78
same,Protective value,[5]; in vivo,86
"COc1cccc(C(=O)N[C@H]2COC(=O)[C@H](Cc3ccccc3)[C@@H](OC(=O)C(C)C)[C@H](C)OC2=O)c1O [Ex. 38, (2R,3R,4S,7S)-7-(3-Methoxysalicylamino)-2-benzyl-5,9-dioxa-3-isobutyryloxy-4-methyl-1,6-cyclononanedione]",Protective value,[5]; in vivo,83
"CC(C)C(=O)O[C@H]1[C@H](C)OC(=O)[C@@H](NC(=O)c2cccc([N+](=O)[O-])c2O)COC(=O)[C@@H]1Cc1ccccc1 [Ex. 40, (2R,3R,4S,7S)-7-(3-Nitrosalicyl)amino-2-benzyl-5,9-dioxa-3-isobutyryloxy-4-methyl-1,6-cyclononanedione]",Protective value,[4],100
"CC(C)C(=O)O[C@H]1[C@H](C)OC(=O)[C@@H](NC(=O)c2ccccc2O)COC(=O)[C@@H]1Cc1ccccc1 [Ex. 39, (2R,3R,4S,7S)-7-Salicylamino-2-benzyl-5,9-dioxa-3-isobutyryloxy-4-methyl-1,6-cyclononanedione]",Protective value,[5]; in vivo,98
"CC(C)C(=O)O[C@H]1[C@H](C)OC(=O)[C@@H](NC(=O)c2nc3ccccc3nc2O)COC(=O)[C@@H]1Cc1ccccc1 [Ex. 8, (2R,3R,4S,7S)-7-(3-Hydroxy-2-quinoxalinecarboxylamino)-2-benzyl-5,9-dioxa-3-isobutyryloxy-4-methyl-1,6-cyclononanedione]",Protective value,[3],100
same,Protective value,[5]; in vivo,100
"CC(C)C(=O)O[C@H]1[C@H](C)OC(=O)[C@@H](NC(=O)c2cccc(O)n2)COC(=O)[C@@H]1Cc1ccccc1 [Ex. 5, (2R,3R,4S,7S)-7-(6-Hydroxypicolinylamino)-2-benzyl-5,9-dioxa-3-isobutyryloxy-4-methyl-1,6-cyclononanedione]",Protective value,[4],100
same,Protective value,[5]; in vivo,90
